The target of this assay is T1, mGluR2 receptor (metabotropic glutamate receptor 2) (Homo sapiens, UniProt Q14416).
T1 construct: expressed in transfected cells
In words: mGluR2 Potentiator Screen, FLIPR, EC10-EC20 glutamate challenge. The class given is cell-based. As to conditions: read-out: EC50. The essentials:
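HEK cells stably co-expressing mGluR2 and Gα15, kept glutamine-free overnight, were loaded with Fluo-4 plus probenecid and GPT/pyruvate. Compounds (top 10 μM) were added ≥30 min before an EC10–EC20 glutamate challenge. Peak FLIPR fluorescence ratios were curve-fitted, excluding points above maximal effect, with maxima from on-plate standards.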

Setting [1] is: mGluR2 potentiator screen, Table 7.

Structures are written as SMILES. Like-named read-outs stand apart in the source and are kept apart here.

One may read the EC50 as the concentration giving half of the maximal effect.

T1 sequence (Q14416 19-872, species assumed): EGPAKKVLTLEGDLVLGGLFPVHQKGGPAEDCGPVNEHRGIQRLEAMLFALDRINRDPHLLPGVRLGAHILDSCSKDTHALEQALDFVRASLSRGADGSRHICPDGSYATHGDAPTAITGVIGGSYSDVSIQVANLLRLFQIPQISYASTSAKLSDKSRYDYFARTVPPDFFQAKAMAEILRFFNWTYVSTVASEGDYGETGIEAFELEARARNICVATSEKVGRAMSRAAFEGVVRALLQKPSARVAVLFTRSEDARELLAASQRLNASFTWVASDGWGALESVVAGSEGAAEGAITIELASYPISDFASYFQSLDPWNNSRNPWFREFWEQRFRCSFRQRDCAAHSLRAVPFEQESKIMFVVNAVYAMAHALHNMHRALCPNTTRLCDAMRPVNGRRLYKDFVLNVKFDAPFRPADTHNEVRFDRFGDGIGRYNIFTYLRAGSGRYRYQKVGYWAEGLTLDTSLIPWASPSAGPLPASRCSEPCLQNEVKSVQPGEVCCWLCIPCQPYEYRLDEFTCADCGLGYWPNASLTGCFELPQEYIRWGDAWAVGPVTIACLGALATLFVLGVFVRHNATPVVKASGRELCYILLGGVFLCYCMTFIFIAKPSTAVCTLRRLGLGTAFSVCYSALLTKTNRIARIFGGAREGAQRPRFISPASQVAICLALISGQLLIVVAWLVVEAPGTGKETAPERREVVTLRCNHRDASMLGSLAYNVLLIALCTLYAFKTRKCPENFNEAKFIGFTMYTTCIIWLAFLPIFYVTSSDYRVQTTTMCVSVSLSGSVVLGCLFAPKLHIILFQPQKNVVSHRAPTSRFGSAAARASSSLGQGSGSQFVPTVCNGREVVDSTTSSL

Take `CCC(CC)CN1CC2(CCN(Cc3nc4ccccc4n3C)CC2)c2cc(C)cc(C)c21` [compound 126]: the concentration for a half-maximal effect (EC50) is 6.01 µM.
The same measure, in the same setting: in the case of `CCCCN1CC2(CCN(Cc3nc4ccccc4n3C)CC2)c2cc(Cl)ccc21` [compound 127] it was 2.81 µM; in that of `Cn1c(CN2CCC3(CC2)CNc2ccc(Cl)cc23)nc2ccccc21` [compound 128], more than 8.98 µM.
On the same count and under the same terms, under `Cn1c(CN2CCC3(CC2)CN(CC2CC2)c2ccc(Cl)cc23)nc2ccccc21` [compound 129] stands 2.51 µM.
`CCCN1CC2(CCN(Cc3nc4ccccc4n3C)CC2)c2ccccc21` [compound 130]: the EC50 amounted to 3.08 µM.
Same read-out and setting: under `CN1CC2(CCN(Cc3nc4ccccc4n3C)CC2)c2cc(Cl)ccc21` [compound 131] stands 1.76 µM; under `CCCCN1CC2(CCN(Cc3nc4ccccc4n3C)CC2)c2ccccc21` [compound 132], 1.34 µM; under `CCC(C)CN1CC2(CCN(Cc3nc4ccccc4n3C)CC2)c2ccccc21` (centres unmarked) [compound 133], 6.16 µM.
The same measure, in the same setting: under `Cn1c(CN2CCC3(CC2)CN(CC2CC2)c2ccccc23)nc2ccccc21` [compound 134] stands 7.38 µM; under `CN1CC2(CCN(Cc3nc4ccccc4n3C)CC2)c2ccccc21` [compound 135], 2.35 µM; under `CN1CC2(CCN(Cc3nc4ccccc4n3C)CC2)c2cc(F)ccc21` [compound 136], 2.65 µM.
Still for that read-out and setting: in the case of `CCCN1CC2(CCN(Cc3nc4ccccc4n3C)CC2)c2cc(F)ccc21` [compound 137] it was more than 7.89 µM.
`Cn1c(CN2CCC3(CC2)CN(CC2CC2)c2ccc(F)cc23)nc2ccccc21` [compound 138]: the EC50 came to 8.59 µM.
Still for that read-out and setting: in the case of `CCCCN1CC2(CCN(Cc3nc4ccccc4n3C)CC2)c2cc(C)ccc21` [compound 139] it was 1.97 µM.
On the same count and under the same terms, in the case of `CCCCN1CC2(CCN(Cc3nc4ccccc4n3C)CC2)c2cc(F)ccc21` [compound 140] it was 2.12 µM; in that of `CCC(C)CN1CC2(CCN(Cc3nc4ccccc4n3C)CC2)c2cc(C)ccc21` (centres unmarked) [compound 141], 5.67 µM.
Still for that read-out and setting: under `Cc1ccc2c(c1)C1(CCN(Cc3nc4ccccc4n3C)CC1)CN2CC1CC1` [compound 142] stands 3.02 µM.
Turning to `Cc1ccc2c(c1)C1(CCN(Cc3nc4ccccc4n3C)CC1)CN2` [compound 143], the EC50 is more than 8.67 µM.
The same measure, in the same setting: in the case of `CCCN1CC2(CCN(Cc3nc4ccccc4n3C)CC2)c2cc(C)ccc21` [compound 144] it was 2.37 µM.
On the same count and under the same terms, in the case of `CCCN1CC2(CCN(Cc3nc4ccccc4n3C)CC2)c2cc(C)cc(C)c21` [compound 145] it was 2.69 µM; in that of `Cc1ccc2c(c1)C1(CCN(Cc3nc4ccccc4n3C)CC1)CN2C` [compound 146], 1.67 µM; in that of `Cc1cc(C)c2c(c1)C1(CCN(Cc3nc4ccccc4n3C)CC1)CN2` [compound 147], 5.81 µM.
The same measure, in the same setting: under `CCC(C)CN1CC2(CCN(Cc3nc4ccccc4n3C)CC2)c2cc(C)cc(C)c21` (centres unmarked) [compound 148] stands 4.73 µM.
On to `CCCCN1CC2(CCN(Cc3nc4ccccc4n3C)CC2)c2cc(C)cc(C)c21` [compound 149], for which, under setting [1], the half-maximal effective concentration (EC50) was determined as 1.64 µM.
On the same count and under the same terms, under `Cn1c(CN2CCC(c3ccccc3)C2)nc2ccccc21` (centres unmarked) [compound 151] stands 4.1 µM.
As for `Cn1c(CN2CCC(c3ccccc3Cl)C2)nc2ccccc21` (centres unmarked) [compound 152], under setting [1], the EC50 was determined as 0.371 µM.
For `COC(=O)[C@H]1CN(Cc2nc3ccccc3n2C)C[C@@H]1c1ccc(C(F)(F)F)cc1` [compound 153], the EC50 under setting [1] worked out at 4.79 µM.
Regarding `COc1ccc(OC)c(C2CCN(Cc3nc4ccccc4n3C)C2)c1` (centres unmarked) [compound 154], the EC50 under setting [1] was found to be 0.285 µM.
For `Cn1c(CN2CCC(c3ccc(F)cc3)C2)nc2ccccc21` (centres unmarked) [compound 155], under setting [1], the EC50 was found to be 1.65 µM.
Still for that read-out and setting: under `COC(=O)[C@H]1CN(Cc2nc3ccccc3n2C)C[C@@H]1c1ccc(Cl)cc1` [compound 156] stands 8.55 µM; under `Cn1c(CN2CCC(c3ccccc3F)CC2)nc2c(Br)cccc21` [compound 157], 0.836 µM; under `Cn1c(CN2CCC(Cc3ccccc3)C2)nc2ccccc21` (centres unmarked) [compound 158], 0.865 µM.

Values taken from patent US20080280933A1, “BENZIMIDAZOLYL COMPOUNDS” (priority 2006, published 2008).
